Test system: New Zealand White Rabbits
Test: Ocular irritancy potential and systemic toxicity, daily repeated ocular instillation
Format: in vivo
Experimental: The pharmaceutical compositions of the present invention were tested in New Zealand White Rabbits, for ocular irritancy potential and systemic toxicity. The pharmaceutical composition of the present invention and polyethylene glycol hydroxystearate (the excipient) both were tested. The test involved daily repeated ocular instillation for at least 14 days.

CC(C)OC(=O)CCC/C=C\C[C@@H]1[C@@H](CC[C@@H](O)CCc2ccccc2)[C@H](O)C[C@@H]1O [latanoprost, isopropyl-(Z)-7[(1R,2R,3R,5S)3,5-dihydroxy-2-[(3R)-3-hydroxy-5-phenylpentyl]cyclopentyl]-5-heptenoate]
gross or microscopical pathological lesion (at least 14 days ocular instillation): did not result into any gross or microscopical pathological lesion | alterations in body weight, % body weight gain, terminal body weight, absolute and relative organ weights, differential cell count of bone marrow, biochemical and hematological parameters (at least 14 days ocular instillation, compared to the control group): no statistically significant alterations | clinical sign or irritation in the eyes (daily repeated ocular instillation for at least 14 days, Solutol HS 15 approximately 47 times HRD, latanoprost approximately 48 times HRD): no clinical sign or irritation in the eyes

From patent publication US9539262B2, “Ophthalmic composition comprising a prostaglandin” (SUN PHARMA ADVANCED RESEARCH COMPANY, LTD., priority 2007, dated 2017)
